Experiment [1] deals with T1, recombinant GST-FXR fusion protein (Homo sapiens, UniProt Q96RI1).
T1 sequence (Q96RI1 1-486): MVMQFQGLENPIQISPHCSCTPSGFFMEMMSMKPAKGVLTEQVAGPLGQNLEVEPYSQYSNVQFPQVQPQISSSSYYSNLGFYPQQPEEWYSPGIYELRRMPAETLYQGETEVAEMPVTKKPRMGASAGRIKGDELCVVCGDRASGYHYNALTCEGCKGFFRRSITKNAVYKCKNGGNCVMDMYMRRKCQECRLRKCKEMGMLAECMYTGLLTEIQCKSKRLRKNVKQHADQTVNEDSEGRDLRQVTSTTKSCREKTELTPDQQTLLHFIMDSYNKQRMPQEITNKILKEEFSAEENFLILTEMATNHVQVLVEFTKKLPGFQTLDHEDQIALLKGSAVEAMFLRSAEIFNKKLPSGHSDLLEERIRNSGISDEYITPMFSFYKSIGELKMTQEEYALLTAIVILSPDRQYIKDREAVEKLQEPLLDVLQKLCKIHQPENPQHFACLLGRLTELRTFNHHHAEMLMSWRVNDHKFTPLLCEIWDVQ
As to the kind of experiment: FXR activity at the molecular level (AlphaScreen). It counts as biochemical. On the procedure: Test Method for FXR Activity at the Molecular Level
FXR activity was determined using recombinant GST-FXR fusion protein by AlphaScreen detection reagent from PerkinElmer. The reaction in this method was carried out in a 384-well plate, and the total reaction volume was 15 μL. A mixture of protein, agonist, co-regulatory factor, AlphaScreen® acceptor beads and AlphaScreen® donor beads was reacted in a buffer containing Tris-HCl 50 mM (pH7.4), 50 mM NaCl, BSA 0.1%, and 1 mM DTT. The FXR activity was reflected by the fluorescence signal intensity at 570 nm wavelength detected by the Envision fluorescence detector.
On the technique in general: Alpha assays give light when donor and acceptor beads are brought close together.

Experiment [2] deals with T2, FXR receptor (Homo sapiens, UniProt Q96RI1).
T2 construct: expressed in transfected cells; host or cells: 293T cells
T2 sequence (Q96RI1 1-486): T1 sequence (Q96RI1 1-486)
In words: FXR activity at the cellular level (FXRE luciferase reporter in 293T cells). It counts as cell-based. On the procedure:
The cells were cultured for 24 hours to ensure plasmid expression. Then the FXR receptor agonists to be tested were added and incubated for 18 hours. The fluorescence intensity was detected using a luciferase kit (steady-Glo Luciferase Assay system) to reflect the compound's activation efficiency on the FXR receptor.
For orientation: In a reporter assay the amount or activity of a reporter protein is the signal.

The mark [3] stands for this setting: 293T cells, luciferase reporter.
The mark [4] stands for this setting: AlphaScreen, GST-FXR, read-out: FXR activity at the molecular level EC50.
The mark [5] stands for this setting: 293T cells, luciferase reporter, read-out: FXR activity at the celluar level EC50.

SMILES strings stand for the structures. Like-named read-outs stand apart in the source and are kept apart here.

A word on the EC50: it is the concentration giving half of the maximal effect.

`O=c1[nH]c(-c2ccc(N3[C@@H]4CC[C@H]3C[C@@H](OCc3c(-c5c(F)cccc5F)noc3C3CC3)C4)cc2F)no1` [Example 7]: the figures for the EC50 in experiment [1] and in experiment [2] were 10 to 100 nM and 0.1 to 1 nM, respectively. In addition, in experiment [2] (setting [3]), the “FXR activity at the celluar level Activity relative to OCA (%) 10 μM” value was 117%.
`O=c1[nH]c(-c2ccc(N3[C@@H]4CC[C@H]3C[C@@H](OCc3c(-c5ccccc5OC(F)F)noc3C3CC3)C4)nc2)no1` [Example 11]: the EC50 in experiment [1] (setting [4]) lay within 10 to 100 nM; in experiment [2] (setting [5]) it was 1 to 10 nM. In addition, the “FXR activity at the celluar level Activity relative to OCA (%) 10 μM” value in experiment [2] (setting [3]) is reported as 108%.
With `Cc1ccccc1-c1noc(C2CC2)c1CO[C@H]1C[C@H]2CC[C@@H](C1)N2c1ccc(-c2noc(=O)[nH]2)c(F)c1` [Example 14], the EC50 in experiment [1] (setting [4]) lay in the range of 10 to 100 nM; in experiment [2] (setting [5]), 0.1 to 1 nM. In experiment [2] (setting [3]), the “FXR activity at the celluar level Activity relative to OCA (%) 10 μM” value came out at 106%.
For `O=c1[nH]c(-c2ccc(N3[C@@H]4CC[C@H]3C[C@@H](OCc3c(-c5ccccc5C(F)(F)F)noc3C3CC3)C4)nc2)no1` [Example 5], in that order: 10 to 100 nM, 0.1 to 1 nM and 141%.
For `O=c1[nH]c(-c2ccc(N3[C@@H]4CC[C@H]3C[C@@H](OCc3c(-c5ccccc5C(F)(F)F)noc3C3CC3)C4)cc2F)no1` [Example 9], in that order: 10 to 100 nM, 0.1 to 1 nM and 102%.
The like results for `O=c1[nH]c(-c2ccc(N3[C@@H]4CC[C@H]3C[C@@H](OCc3c(-c5ccccc5OC(F)F)noc3C3CC3)C4)cc2F)no1` [Example 13] were, in that order, 10 to 100 nM, 0.1 to 1 nM and 108%.
As to `O=c1[nH]c(-c2ccc(N3[C@@H]4CC[C@H]3C[C@@H](OCc3c(-c5ccccc5OC(F)(F)F)noc3C3CC3)C4)cc2F)no1` [Example 10], the EC50 is 10 to 100 nM in experiment [1] (setting [4]) and 0.1 to 1 nM in experiment [2] (setting [5]). In addition, the “FXR activity at the celluar level Activity relative to OCA (%) 10 μM” value in experiment [2] (setting [3]) stood at 102%.
As for `Cc1ccccc1-c1noc(C2CC2)c1CO[C@H]1C[C@H]2CC[C@@H](C1)N2c1ccc(-c2noc(=O)[nH]2)cn1` [Example 12], the figures for the EC50 in experiment [1] (setting [4]) and in experiment [2] (setting [5]) were 10 to 100 nM and 1 to 10 nM, respectively. Moreover, the “FXR activity at the celluar level Activity relative to OCA (%) 10 μM” value in experiment [2] (setting [3]) was determined as 105%.
As for `O=c1[nH]c(-c2ccc(N3[C@@H]4CC[C@H]3C[C@@H](OCc3c(-c5c(F)cccc5F)noc3C3CC3)C4)nc2)no1` [Example 3], the figures for the EC50 in experiment [1] (setting [4]) and in experiment [2] (setting [5]) were 10 to 100 nM and 0.1 to 1 nM, respectively. The “FXR activity at the celluar level Activity relative to OCA (%) 10 μM” value in experiment [2] (setting [3]) is reported as 116%.
`O=c1[nH]c(-c2ccc(N3[C@@H]4CC[C@H]3C[C@@H](OCc3c(-c5c(Cl)cccc5Cl)noc3C3CC3)C4)nc2)no1` [Example 4]: the EC50 in experiment [1] (setting [4]) is less than 10 nM; in experiment [2] (setting [5]), less than 0.1 nM. Moreover, the “FXR activity at the celluar level Activity relative to OCA (%) 10 μM” value in experiment [2] (setting [3]) is 103%.
In the case of `O=c1[nH]c(-c2ccc(N3[C@@H]4CC[C@H]3C[C@@H](OCc3c(-c5c(Cl)cccc5Cl)noc3C3CC3)C4)cc2)no1` [Example 1], the figures for the EC50 in experiment [1] (setting [4]) and in experiment [2] (setting [5]) were less than 10 nM and 1 to 10 nM, respectively. Besides, the “difference of activity on FXR at molecular level, endo-compound vs exo-compound” value in experiment [1] (endo- versus exo-compound) is “more than 100 times”. Also, the “FXR activity at the celluar level Activity relative to OCA (%) 10 μM” value in experiment [2] (setting [3]) worked out at 88%.
For `O=c1[nH]c(-c2ccc(N3[C@@H]4CC[C@H]3C[C@@H](OCc3c(-c5c(Cl)cccc5Cl)noc3C3CC3)C4)cc2F)no1` [Example 8], the EC50 in experiment [1] (setting [4]) is less than 10 nM; in experiment [2] it was less than 0.1 nM. In addition, the “FXR activity at the celluar level Activity relative to OCA (%) 10 μM” value in experiment [2] (setting [3]) is reported as 102%.
Consider `O=c1[nH]c(-c2ccc(N3[C@@H]4CC[C@H]3C[C@H](OCc3c(-c5c(Cl)cccc5Cl)noc3C3CC3)C4)cc2)no1` [Example 2], for which the EC50 in experiment [1] (setting [4]) was more than 1000 nM; in experiment [2] (setting [5]) it was more than 100 nM. Also, the “FXR activity at the celluar level Activity relative to OCA (%) 10 μM” value in experiment [2] (setting [3]) came out at 73%.
For `O=c1[nH]c(-c2ccc(N3[C@@H]4CC[C@H]3C[C@@H](OCc3c(-c5ccccc5OC(F)(F)F)noc3C3CC3)C4)nc2)no1` [Example 6], the EC50 in experiment [1] (setting [4]) was in the range of 10 to 100 nM; in experiment [2] (setting [5]) it was 0.1 to 1 nM. The “FXR activity at the celluar level Activity relative to OCA (%) 10 μM” value in experiment [2] (setting [3]) amounted to 122%.

Values taken from US12655148B2, “FXR small-molecule agonist, and preparation method therefor and use thereof” (Shanghai Institute of Materia Medica, Chinese Academy of …, priority 2020, dated 2026).
